# Data taken from patent US5266566A, “Method of treating fungal infections using sterodial ester compounds” (British Technology Group Limited, priority 1989, dated 1993).
# “Also recorded” adds a separate entry of the source. Like-named read-outs stand apart in the source and are kept apart here.
# Key:
# Experiment in all cases: Disc diffusion antifungal test (zones of inhibition, approximate MIC)
# Type in all cases: cell-based
# [1] = tested on: Trichophyton mentagrophytes NCPF 224
# Protocol: (§1) Candida albicans NCYC 597; Trichophyton mentagrophytes NCPF 224 and Microsporum audonii NCPF 638 were used throughout as test organisms. These are open deposits at the National Collection of Yeast Cultures, Norwich UK and the National Collection of Pathogenic Fungi of the Commonwealth Mycological Institute, Kew UK.
# (§2) All organisms were maintained in a nutrient broth containing (gl^-1): Lab Lemco (Oxoid), 5; Peptone (Oxoid), 5; NaCl, 10. Cultures for testing antimicrobial activity were grown in this medium for 18 h prior to use. Solidified media were prepared by the addition of Agar (Oxoid No. 3) 1.5% w/v.
# (§3) Antifungal activity was estimated using solutions of the compound (as the free acid) in dimethyl sulphoxide. A range of concentrations was used for each compound to permit calculation of an approximate MIC. 13 mm discs (Whatman) were soaked in a solution of the appropriate dilution, either allowed to dry, or placed directly onto the surface of nutrient agar plates seeded with the required test organism.
# (§4) After 24 h incubation the diameters of zones of inhibition were measured. After a further 24 h incubation, the plates were re-examined and zones re-measured. The compounds were tested in three groups.
# [2] = tested on: Microsporum audonii NCPF 638; settings: for MIC: Microsporum
# Protocol: as §1, §2, §3, §4
# [3] = tested on: Candida albicans NCYC 597; settings: for MIC: Candida albicans; for Activity against Candida albicans (in words): result in words
# Protocol: as §1, §2, §3, §4
# [4] = NCPF224, Table 3, Group 3 tests, read-out: MIC T. ment.
# [5] = NCPF638, Table 3, Group 3 tests, read-out: MIC M. aud.
# [6] = NCPF224, Table 2, Group 2 tests, read-out: MIC Trichophyton mentagrophytes
# [7] = NCPF638, Table 2, Group 2 tests, read-out: MIC Microsporum audonii
# [8] = NCPF224, Table 1, Group 1 tests, read-out: MIC T. ment.
# [9] = NCPF638, Table 1, Group 1 tests, read-out: MIC M. aud.
# [10] = NCYC597, read-out: MIC C. albicans, Table 1, Group 1 tests
# [11] = NCPF224, read-out: MIC T. ment., Table 1, Group 1 tests
# [12] = NCPF224, read-out: MIC Trichophyton mentagrophytes, Table 2, Group 2 tests
# [13] = NCPF638, read-out: MIC M. aud., Table 1, Group 1 tests
# [14] = NCPF638, read-out: MIC Microsporum audonii, Table 2, Group 2 tests
# [15] = NCYC597, read-out: MIC Candida albicans, Table 2, Group 2 tests
# [16] = NCYC597, read-out: MIC C. albicans, Table 3, Group 3 tests
# [17] = NCYC597, Table 1, Group 1 tests, read-out: MIC C. albicans
structure (smiles),measurement,setting,value
"CCCCOC(=O)CC[C@@H](C)[C@H]1CC[C@H]2[C@@H]3[C@H](O)C[C@@H]4C[C@H](O)CC[C@]4(C)[C@H]3CC[C@]12C [Butyl chenodeoxycholate, n-butyl chenodeoxycholate]",MIC,[1]; [4],1500 µg/mL
same,MIC,[2]; [5],1000 µg/mL
same,MIC C. albicans,"[3]; Table 3, Group 3 tests",no effect
"CCCCOC(=O)CC[C@@H](C)[C@H]1CC[C@H]2[C@@H]3CC[C@@H]4C[C@H](O)CC[C@]4(C)[C@H]3C[C@H](O)[C@]12C [Butyl deoxycholate, n-butyl deoxycholate]",MIC,[1]; [6],850 µg/mL
same,MIC,[2]; [7],875 µg/mL
"CCCCOC(=O)CC[C@@H](C)[C@H]1CC[C@H]2[C@@H]3CC[C@@H]4C[C@H](O)CC[C@]4(C)[C@H]3CC[C@]12C [Butyl lithocholate, n-butyl lithocholate]",MIC,[1]; [6],1100 µg/mL
same,MIC,[2]; [7],900 µg/mL
"C[C@H](CCC(=O)O)[C@H]1CC[C@H]2[C@@H]3[C@H](O)C[C@@H]4C[C@H](O)CC[C@]4(C)[C@H]3CC[C@]12C [Chenodeoxycholic acid, reference compound]",MIC,[1]; [8],1300 µg/mL
same,MIC,[2]; [9],1000 µg/mL
same,MIC,[3]; [10],140 µg/mL
"C[C@H](CCC(=O)O)[C@H]1CC[C@H]2[C@@H]3[C@H](O)C[C@@H]4C[C@H](O)CC[C@]4(C)[C@H]3C[C@H](O)[C@]12C [Cholic acid, reference compound]",MIC,[1]; [11],10000 µg/mL
same,MIC,[1]; [12],~10000 µg/mL
same,MIC,[2]; [13],5500 µg/mL
same,MIC,[2]; [14],~5000 µg/mL
same,MIC,[3]; [10],390 µg/mL
same,MIC,[3]; [15],405 µg/mL
"C[C@H](CCC(=O)O)[C@H]1CC[C@H]2[C@@H]3CC[C@@H]4C[C@H](O)CC[C@]4(C)[C@H]3C[C@H](O)[C@]12C [Deoxycholic acid, reference compound]",MIC,[1]; [8],300 µg/mL
same,MIC,[1]; [6],310 µg/mL
same,MIC,[1]; [4],250 µg/mL
same,MIC,[2]; [9],30 µg/mL
same,MIC,[2]; [7],35 µg/mL
same,MIC,[2]; [5],40 µg/mL
same,Activity against Microsporum audonii (in words),[2]; result in words,very highly effective; also recorded: effective
same,MIC,[3]; [10],2100 µg/mL
same,MIC,[3]; [16],1800 µg/mL
same,MIC,[3]; [15],2000 µg/mL
same,Activity against Candida albicans (in words),[3],poorer action against Candida
"C[C@H](CCC(=O)O)[C@H]1CC[C@H]2[C@@H]3CC[C@@H]4C[C@H](O)CC[C@]4(C)[C@H]3CC[C@]12C [Lithocholic acid, reference compound]",MIC,[2]; [9],100 µg/mL
same,MIC,[3]; [17],410 µg/mL
"COC(=O)CC[C@@H](C)[C@H]1CC[C@H]2[C@@H]3[C@H](O)C[C@@H]4C[C@H](O)CC[C@]4(C)[C@H]3CC[C@]12C [Methyl chenodeoxycholate, methyl chenodeoxycholate]",MIC,[1]; [11],460 µg/mL
same,MIC,"[1]; NCPF224, read-out: MIC T. ment., Table 3, Group 3 tests",1000 µg/mL
same,MIC,[2]; [13],30 µg/mL
same,MIC,"[2]; NCPF638, read-out: MIC M. aud., Table 3, Group 3 tests",800 µg/mL
same,MIC,[3]; [10],20 µg/mL
same,MIC,[3]; [16],1000 µg/mL
"COC(=O)CC[C@@H](C)[C@H]1CC[C@H]2[C@@H]3[C@H](O)C[C@@H]4C[C@H](O)CC[C@]4(C)[C@H]3C[C@H](O)[C@]12C [Methyl cholate, methyl cholate]",MIC,[1]; [8],80 µg/mL
same,MIC,[2]; [9],50 µg/mL
same,MIC,[3]; [17],3500 µg/mL
"COC(=O)CC[C@@H](C)[C@H]1CC[C@H]2[C@@H]3CC[C@@H]4C[C@H](O)CC[C@]4(C)[C@H]3C[C@H](O)[C@]12C [Methyl deoxycholate, methyl deoxycholate]",MIC,[1]; [8],900 µg/mL
same,MIC,[1]; [6],250 µg/mL
same,MIC,[1]; [4],500 µg/mL
same,MIC,[2]; [9],520 µg/mL
same,MIC,[2]; [7],200 µg/mL
same,MIC,[2]; [5],450 µg/mL
same,MIC,[3]; [17],20 µg/mL
same,MIC,"[3]; NCYC597, Table 2, Group 2 tests, read-out: MIC Candida albicans",31 µg/mL
same,MIC,"[3]; NCYC597, Table 3, Group 3 tests, read-out: MIC C. albicans",28 µg/mL
same,Homogeneity of effect in the zone of inhibition,"[3]; Group 2 tests, many resistant colonies in the zone",not homogeneous
same,Activity against Candida albicans (in words),[3],highly effective; also recorded: outstanding
"COC(=O)CC[C@@H](C)[C@H]1CC[C@H]2[C@@H]3CC[C@@H]4C[C@H](O)CC[C@]4(C)[C@H]3CC[C@]12C [Methyl lithocholate, methyl lithocholate]",MIC,[1]; [12],1000 µg/mL
same,MIC,[2]; [14],950 µg/mL
